Measured values: ChEMBL document CHEMBL1201862, “PubChem BioAssay data set” (2004)
“And” between values parts separate entries of the source, which are not always exact repeats. Identical values can stand only once. The source made the active and inactive calls.

How the values were obtained:
HEK293 [1] = experiment: NOD2 signaling inhibitors in MDP-stimulated cells, cell-based, uHTS, luminescence (AID 2001); type: functional; conditions: Homo sapiens
HEK293 [2] = experiment: cells; conditions: Homo sapiens
[3] = target: T1, Sentrin-specific protease 8 (Homo sapiens, UniProt Q96LD8); type: functional
T1 sequence (Q96LD8 whole entry): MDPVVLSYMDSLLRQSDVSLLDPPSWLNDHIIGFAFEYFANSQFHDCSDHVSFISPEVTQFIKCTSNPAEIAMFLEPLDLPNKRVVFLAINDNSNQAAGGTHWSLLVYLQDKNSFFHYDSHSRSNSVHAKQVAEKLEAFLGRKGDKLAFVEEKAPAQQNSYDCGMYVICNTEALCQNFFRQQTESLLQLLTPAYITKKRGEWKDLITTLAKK

HEK293 [4] = experiment: cells; type: functional, cell-based; conditions: Homo sapiens
Tumor necrosis factor = Tumor necrosis factor (Homo sapiens, UniProt P01375); experiment: analog potency on TNFa NF-kB signaling – cell-based, revised, SAR follow-up (AID 2337); type: functional
[5] = target: T1, Sentrin-specific protease 8; type: functional; remark: listed apart in the source
[6] = target: Nucleotide-binding oligomerization domain-containing protein 1 (Homo sapiens, UniProt Q9Y239); experiment: blockers of NOD1 pathway activity – revised, SAR follow-up (AID 2333); type: functional
HEK293 [7] = experiment: cells; type: functional, cell-based; conditions: Homo sapiens; remark: listed apart in the source
HEK293 [8] = experiment: inhibition of NOD1-driven NF-kB reporter – cell-based, luminescence, uHTS, primary screen (AID 1578); type: functional; conditions: Homo sapiens
[9] = target: T2, Carboxy-terminal domain RNA polymerase II polypeptide A small phosphatase 1 (Homo sapiens, UniProt Q9GZU7); experiment: CTDSP1 inhibitors, concentration-response, biochemical, absorbance readout, ultra-high-throughput screen actives (AID 540297); type: functional
T2 sequence (Q9GZU7 whole entry): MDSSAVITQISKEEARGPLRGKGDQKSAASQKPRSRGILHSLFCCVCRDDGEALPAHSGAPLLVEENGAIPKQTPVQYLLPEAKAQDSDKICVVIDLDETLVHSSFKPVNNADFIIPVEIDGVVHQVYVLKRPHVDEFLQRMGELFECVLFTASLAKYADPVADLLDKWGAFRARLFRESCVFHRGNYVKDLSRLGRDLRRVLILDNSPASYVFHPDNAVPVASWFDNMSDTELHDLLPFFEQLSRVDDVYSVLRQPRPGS

[10] = target: T3, Dual specificity protein phosphatase 3 (Homo sapiens, UniProt P51452); experiment: VHR1 phosphatase inhibitors, biochemical (AID 1878)
[11] = target: T4, Dual specificity protein phosphatase 6 (Rattus norvegicus, UniProt Q64346); experiment: inhibition of rat DUSP6 enzyme activity – biochemical, in vitro, primary screen (AID 425)
T4 sequence (Q64346 whole entry): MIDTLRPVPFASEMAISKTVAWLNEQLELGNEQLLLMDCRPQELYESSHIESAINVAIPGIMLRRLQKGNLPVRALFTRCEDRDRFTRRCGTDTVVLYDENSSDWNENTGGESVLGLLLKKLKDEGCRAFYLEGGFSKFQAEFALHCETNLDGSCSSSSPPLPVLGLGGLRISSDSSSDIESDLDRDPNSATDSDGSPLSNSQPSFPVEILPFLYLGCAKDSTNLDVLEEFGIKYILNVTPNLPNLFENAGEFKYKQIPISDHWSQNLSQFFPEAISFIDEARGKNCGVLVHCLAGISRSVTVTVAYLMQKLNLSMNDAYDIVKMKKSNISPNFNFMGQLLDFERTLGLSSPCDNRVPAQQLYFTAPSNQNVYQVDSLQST

[12] = target: T3, Dual specificity protein phosphatase 3; experiment: VHR1 phosphatase inhibitors, primary screen, biochemical, absorbance, uHTS (AID 1654)
CAAX prenyl protease 1 = CAAX prenyl protease 1 (Saccharomyces cerevisiae S288c, UniProt P47154); experiment: yeast CAAX protease Ste24 inhibition – biochemical, S. cerevisiae, plate reader, cherry-pick, dose response (AID 488815)
Trypsin = Trypsin (Sus scrofa, UniProt P00761); experiment: trypsin protease activity blockade – biochemical, quenched peptide fluorescence, cherry-pick, selectivity assay for Rce1 protease inhibitor project, dose response (AID 488789)
CAAX prenyl protease 2 = target: T5, CAAX prenyl protease 2 (Saccharomyces cerevisiae S288c, UniProt Q03530); type: biochemical
T5 sequence (Q03530 whole entry): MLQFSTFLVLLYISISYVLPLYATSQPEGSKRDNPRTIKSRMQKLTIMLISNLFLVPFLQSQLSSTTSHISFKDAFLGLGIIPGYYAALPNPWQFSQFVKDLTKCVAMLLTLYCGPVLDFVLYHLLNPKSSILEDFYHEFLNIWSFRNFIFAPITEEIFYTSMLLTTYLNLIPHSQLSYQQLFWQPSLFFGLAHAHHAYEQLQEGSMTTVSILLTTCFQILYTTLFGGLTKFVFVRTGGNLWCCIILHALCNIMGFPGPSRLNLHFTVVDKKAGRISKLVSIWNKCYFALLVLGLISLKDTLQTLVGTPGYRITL

Phosphomannomutase 2 = Phosphomannomutase 2 (Homo sapiens, UniProt O15305); experiment: Counter screen SAR assay for PMM2 inhibitors via a fluorescence intensity assay. [Related pubchem assays (depositor defined):AID1545, AID1574]
[13] = target: T6, Mannose-6-phosphate isomerase (Homo sapiens, UniProt P34949); experiment: Confirmation of compounds inhibiting phosphomannose isomerase (PMI) via a fluorescence intensity assay using a high concentration of mannose 6-phosphate. [Related pubchem assays (depositor defined):AID1209, AID1220, AID1545, AID1553, AID1620]
T6 sequence (P34949 whole entry): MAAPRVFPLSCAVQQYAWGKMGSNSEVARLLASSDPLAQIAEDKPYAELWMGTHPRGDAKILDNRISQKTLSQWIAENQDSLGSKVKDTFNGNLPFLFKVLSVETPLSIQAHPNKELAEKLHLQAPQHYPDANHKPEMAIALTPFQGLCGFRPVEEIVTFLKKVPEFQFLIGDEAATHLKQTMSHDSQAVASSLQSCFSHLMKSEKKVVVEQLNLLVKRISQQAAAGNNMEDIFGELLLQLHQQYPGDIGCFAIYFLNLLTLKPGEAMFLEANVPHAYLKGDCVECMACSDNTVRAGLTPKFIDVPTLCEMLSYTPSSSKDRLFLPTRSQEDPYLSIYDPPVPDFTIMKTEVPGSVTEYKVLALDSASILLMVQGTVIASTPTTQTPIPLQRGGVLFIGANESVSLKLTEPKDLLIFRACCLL

[14] = target: T6, Mannose-6-phosphate isomerase; experiment: phosphomannose isomerase inhibition – biochemical, fluorescence intensity, confirmation (AID 1535)
[15] = Luminescence Cell-Based Secondary HTS screen to identify cytotoxic compounds of NIH3T3 cells. [Related pubchem assays: 1885, 1968 ]; type: functional
[16] = NIH3T3 cell viability loss – ATP luminescence, mouse fibroblasts, counter-screen, dose response (AID 2010); type: functional, cell-based;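 note: cells exposed to compound for about 90 hours before reading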
[17] = Luminescence Cell-Based/Microorganism Confirmation at Dose of Inhibitors of Trypanosoma cruzi Infection. [Related pubchem assays: 1885, 1968 ]; type: functional
[18] = Trypanosoma cruzi growth suppression in host cells – NIH3T3 host cells, beta-gal luminescence, confirmation (AID 2044); type: functional, cell-based;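 note: intracellular parasites grown in NIH/3T3 mouse fibroblasts as host cells; luminescent beta-galactosidase reporter signal from transgenic T. cruzi replicating inside host cells; inhibitors lower the luminescence signal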
[19] = T. cruzi infection blockers in NIH3T3 cells – beta-gal luminescence, NIH3T3 host cells, confirmation (AID 2630); type: functional, cell-based; conditions: Mus musculus

T3 sequence (P51452 whole entry): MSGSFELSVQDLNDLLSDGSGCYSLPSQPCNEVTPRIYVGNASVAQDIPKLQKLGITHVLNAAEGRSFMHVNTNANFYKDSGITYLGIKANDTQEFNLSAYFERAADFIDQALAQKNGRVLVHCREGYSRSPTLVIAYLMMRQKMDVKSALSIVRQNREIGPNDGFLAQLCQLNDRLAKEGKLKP
Chain of Nucleotide-binding oligomerization domain-containing protein 1 (Q9Y239 whole entry, the tested form may be a part): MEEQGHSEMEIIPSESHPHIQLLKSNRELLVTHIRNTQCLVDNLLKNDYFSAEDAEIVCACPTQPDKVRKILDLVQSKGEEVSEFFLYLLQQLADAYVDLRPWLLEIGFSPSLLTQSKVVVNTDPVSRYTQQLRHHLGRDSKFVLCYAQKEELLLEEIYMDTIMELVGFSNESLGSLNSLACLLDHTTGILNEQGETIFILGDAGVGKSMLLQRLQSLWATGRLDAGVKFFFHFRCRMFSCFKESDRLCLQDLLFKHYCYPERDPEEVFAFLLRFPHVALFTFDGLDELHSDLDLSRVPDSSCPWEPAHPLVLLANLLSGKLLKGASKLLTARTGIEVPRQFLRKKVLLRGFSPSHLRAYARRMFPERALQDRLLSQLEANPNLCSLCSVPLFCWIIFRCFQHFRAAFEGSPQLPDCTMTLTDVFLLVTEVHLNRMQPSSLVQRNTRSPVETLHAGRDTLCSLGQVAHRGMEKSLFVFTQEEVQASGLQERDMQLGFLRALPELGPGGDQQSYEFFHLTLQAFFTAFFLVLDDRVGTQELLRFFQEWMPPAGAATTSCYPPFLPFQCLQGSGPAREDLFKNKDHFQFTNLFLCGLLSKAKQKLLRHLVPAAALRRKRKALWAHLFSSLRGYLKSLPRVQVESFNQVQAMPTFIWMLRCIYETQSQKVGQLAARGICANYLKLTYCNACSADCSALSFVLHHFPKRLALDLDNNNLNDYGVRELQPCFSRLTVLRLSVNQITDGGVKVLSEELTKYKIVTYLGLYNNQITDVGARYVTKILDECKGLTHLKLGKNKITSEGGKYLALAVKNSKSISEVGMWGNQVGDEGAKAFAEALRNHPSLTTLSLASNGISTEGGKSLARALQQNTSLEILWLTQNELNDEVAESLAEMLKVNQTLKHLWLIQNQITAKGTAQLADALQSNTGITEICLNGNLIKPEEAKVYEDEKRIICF
Chain of Tumor necrosis factor (P01375 whole entry): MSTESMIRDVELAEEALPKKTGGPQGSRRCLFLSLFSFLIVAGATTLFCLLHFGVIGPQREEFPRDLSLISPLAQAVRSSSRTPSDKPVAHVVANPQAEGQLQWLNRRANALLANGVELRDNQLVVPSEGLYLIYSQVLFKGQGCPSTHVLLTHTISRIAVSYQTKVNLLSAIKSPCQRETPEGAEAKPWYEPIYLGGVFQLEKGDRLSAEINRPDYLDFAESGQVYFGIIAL
Chain of Phosphomannomutase 2 (O15305 whole entry): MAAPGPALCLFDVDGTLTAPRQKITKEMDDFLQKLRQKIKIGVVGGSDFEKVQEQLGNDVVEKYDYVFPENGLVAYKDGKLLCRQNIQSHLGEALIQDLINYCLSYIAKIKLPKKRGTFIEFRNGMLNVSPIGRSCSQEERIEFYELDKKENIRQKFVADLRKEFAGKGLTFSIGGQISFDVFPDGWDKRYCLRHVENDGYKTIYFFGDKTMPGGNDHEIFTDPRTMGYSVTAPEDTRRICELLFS
Chain of Trypsin (P00761 whole entry): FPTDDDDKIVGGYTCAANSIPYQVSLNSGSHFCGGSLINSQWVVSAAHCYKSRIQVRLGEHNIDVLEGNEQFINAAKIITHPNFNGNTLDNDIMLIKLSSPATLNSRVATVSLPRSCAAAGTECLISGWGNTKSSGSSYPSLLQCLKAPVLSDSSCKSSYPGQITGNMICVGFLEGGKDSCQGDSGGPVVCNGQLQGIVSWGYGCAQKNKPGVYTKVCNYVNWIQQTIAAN
Chain of CAAX prenyl protease 1 (P47154 whole entry): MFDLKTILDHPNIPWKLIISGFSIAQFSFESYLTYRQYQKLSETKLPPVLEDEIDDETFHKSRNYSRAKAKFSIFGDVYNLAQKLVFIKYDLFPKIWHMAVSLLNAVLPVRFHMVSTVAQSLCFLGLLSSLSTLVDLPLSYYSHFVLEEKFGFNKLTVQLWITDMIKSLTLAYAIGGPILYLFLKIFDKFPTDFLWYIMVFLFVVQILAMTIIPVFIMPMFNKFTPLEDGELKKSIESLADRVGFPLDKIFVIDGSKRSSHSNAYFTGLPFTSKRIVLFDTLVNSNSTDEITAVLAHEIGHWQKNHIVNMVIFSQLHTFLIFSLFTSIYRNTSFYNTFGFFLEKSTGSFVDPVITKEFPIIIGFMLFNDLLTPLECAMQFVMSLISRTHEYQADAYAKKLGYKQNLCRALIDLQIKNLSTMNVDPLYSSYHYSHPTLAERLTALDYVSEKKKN

Question: For `O=C(Nc1ccc(Cl)cc1)c1ccc(CN2CCc3ccccc3C2)cc1`, which IC50 (HEK293 [1]) is on record?
Answer: Its IC50 is 5.45 µM (inactive).

Question: What about the IC50 (HEK293 [2]) of the same compound?
Answer: Its IC50 is > 20 µM (inactive).

Question: And the IC50 [3]?
Answer: Its IC50 is 22.1 µM (active).

Question: And the IC50 (HEK293 [4])?
Answer: The IC50 was > 20 µM (inactive).

Question: And the IC50 (Tumor necrosis factor)?
Answer: Its IC50 is 4.66 µM (active) and 491 nM (active).

Question: What about the IC50 [5] of the same compound?
Answer: Its IC50 is > 100 µM (inactive).

Question: What about the IC50 [6] of the same compound?
Answer: The IC50 was 1.19 µM (active) and 833 nM (active).

Question: And the IC50 (HEK293 [7])?
Answer: The IC50 was 2.11 µM (active).

Question: What about the EC50 (HEK293 [8]) of the same compound?
Answer: Its EC50 is 2.29 µM (active).

Question: Which results are given for `CN1C(=O)/C(=C2\SC(=S)N(CCCCCC(=O)O)C2=O)c2ccccc21`?
Answer: IC50 [9]: 0.836 µM (active); IC50 [10]: 2.4 µM (active); IC50 [11]: > 158 µM (not active); IC50 [12]: 5.97 µM (active)

Question: With `CCOc1ccc(C2C(C(=O)OC)=CN(C(C)c3ccccc3)C=C2C(=O)OC)cc1` (centres undefined) as the compound, how does the AC50 (CAAX prenyl protease 1) read?
Answer: Its AC50 is 5.08 µM (active).

Question: And the AC50 (Trypsin)?
Answer: Its AC50 is 5.7 µM (active).

Question: And the AC50 (CAAX prenyl protease 2)?
Answer: The AC50 was > 100 µM (inactive).

Question: Which IC50 (Phosphomannomutase 2) does the source give for `COc1ccc2c(=O)n(C3CCCC3)sc2c1` here?
Answer: The IC50 was > 100 µM (inactive).

Question: What about the IC50 [13] of the same compound?
Answer: The IC50 was > 100 µM (inactive).

Question: And the IC50 [14]?
Answer: The IC50 was 86.8 µM (active).

Question: With `CCOc1ccc2oc(=O)cc(CN3CCN(Cc4ccccc4)CC3)c2c1` as the compound, how does the EC50 [15] read?
Answer: The EC50 was > 195 µM (inconclusive).

Question: And the EC50 [16]?
Answer: Its EC50 is > 30 µM (not active).

Question: And the EC50 [17]?
Answer: The EC50 was 0.903 µM (inconclusive).

Question: And the EC50 [18]?
Answer: The EC50 was 0.216 µM (active).

Question: And the EC50 [19]?
Answer: Its EC50 is 0.903 µM (active).
